Our source for the resistance to degradation values is patent US20110145975A1, “P0WDER-FREE GLOVE WITH STABLE AND FAST ACTING MICROBIAL COATING” (ANSELL LIMITED, priority 2009, published 2011).

This series is classed as physicochemical. The text has this:
Several cationic antimicrobial agents are available for incorporation into the antimicrobial coating. The resistances of these cationic antimicrobial agents to degradation vary due to differences in their chemical structure, molecular weight, and species of anions and anionic surfactants that tend to degrade the long lifetime of the antimicrobial coating. […] Mixtures of antimicrobial agents can be used, for example to expand the range of bacteria against which the coating is effective.

For poly(hexamethylene biguanide) chloride, the resistance to degradation result is given as “more resistant to degradation than CHG”.
